{"source": "ChEMBL document CHEMBL5036372", "about": "“QuatCy-I2 and MHI-I2 in Photodynamic Therapy” (ACS Med Chem Lett, 2022)", "key": {"[1]": {"test": "Clearance in CD-1 mouse at 25 nmol, iv measured upto 480 mins by UV-Vis spectrophotometer method", "format": "ADME, organism-based", "conditions": "in vivo; call rule not given here"}, "[2]": {"test": "Terminal half life in CD-1 mouse at 25 nmol, iv measured upto 480 mins by UV-Vis spectrophotometer method", "format": "ADME, organism-based", "conditions": "in vivo, read-out: beta t1/2"}, "[3]": {"test": "Drug localization in lungs of CD-1 mouse at 25 nmol, iv measured after 4 hrs by fluorescence imaging analysis", "format": "ADME, organism-based, Lung", "conditions": "in vivo"}, "[4]": {"test": "Phototherapeutic index, ratio of IC50 for dark cytotoxicity against human U-87 MG cells to IC50 for light cytotoxicity against human U-87 MG cells preincubated for 6 to 24 hrs followed by light irradiation for 20 min and measured after 24 hrs dark incubation by Alamar blue assay", "format": "cell-based, U-87MG ATCC", "conditions": "time 6-24 hrs, read-out: Ratio IC50"}, "[5]": {"test": "Biodistribution in lymph node of mouse implanted with mouse NIT-1 cells at 35 nmol, iv incubated for 4 to 8 hrs by fluorescence imaging analysis", "format": "ADME, organism-based", "conditions": "in vivo, time 4-8 hrs"}, "[6]": {"test": "Drug localization in liver of CD-1 mouse at 25 nmol, iv measured after 4 hrs by fluorescence imaging analysis", "format": "ADME, organism-based", "conditions": "in vivo"}, "[7]": {"test": "Biodistribution in bone marrow of mouse implanted with mouse NIT-1 cells at 35 nmol, iv incubated for 4 to 8 hrs by fluorescence imaging analysis", "format": "ADME, organism-based", "conditions": "in vivo, time 4-8 hrs"}, "U-87 MG": {"tested_on": "U-87 MG", "test": "Dark toxicity against human U-87 MG cells incubated for 48 hrs by Alamar blue assay", "format": "cell-based, U-87MG ATCC"}, "Mus musculus": {"tested_on": "Mus musculus", "test": "Antitumor activity against mouse implanted with mouse NIT-1 cells assessed as tumor to background ratio at 35 nmol, iv incubated for 4 hrs by fluorescence imaging analysis", "format": "functional"}, "[8]": {"test": "Drug localization in kidney of CD-1 mouse at 25 nmol, iv measured after 4 hrs by fluorescence imaging analysis", "format": "ADME, organism-based", "conditions": "in vivo"}, "[9]": {"test": "Drug localization in duodenum of CD-1 mouse at 25 nmol, iv measured after 4 hrs by fluorescence imaging analysis", "format": "ADME, organism-based", "conditions": "in vivo"}, "[10]": {"test": "Biodistribution in peripheral tissue of mouse implanted with mouse NIT-1 cells at 35 nmol, iv incubated for 4 to 8 hrs by fluorescence imaging analysis", "format": "ADME, organism-based", "conditions": "in vivo, time 4-8 hrs"}, "[11]": {"test": "Half life in CD-1 mouse blood at 25 nmol, iv measured upto 480 mins by UV-Vis spectrophotometer method", "format": "ADME, organism-based"}}, "data": [{"smiles": "CC1(C)C(/C=C/C2=C(Cl)C(=C/C=C3/N(CCCCCC(=O)O)c4ccc(I)cc4C3(C)C)/C[N+](C)(C)C2)=[N+](CCCCCC(=O)O)c2ccc(I)cc21", "values": [{"measurement": "clearance", "setting": "[1]", "value": 5, "unit": "mL/min/kg"}, {"measurement": "half-life", "setting": "[2]", "value": 0.917, "unit": "h"}, {"measurement": "Drug uptake", "setting": "[3]", "value": "Not Active"}, {"measurement": "selectivity ratio at 24 h", "setting": "[4]", "value": 72.8}, {"measurement": "Drug uptake", "setting": "[5]", "value": "Active"}, {"measurement": "Drug uptake", "setting": "[6]", "value": "Active"}, {"measurement": "Drug uptake", "setting": "[7]", "value": "Active"}, {"measurement": "IC50", "setting": "U-87 MG", "value": 62.4, "unit": "µM"}, {"measurement": "Ratio", "setting": "Mus musculus", "value": 8.98}, {"measurement": "Drug uptake", "setting": "[8]", "value": "Active"}]}, {"smiles": "CC1(C)C(/C=C/C2=C(Cl)C(=C/C=C3/N(CCCCCC(=O)O)c4ccc(I)cc4C3(C)C)/CCC2)=[N+](CCCCCC(=O)O)c2ccc(I)cc21", "values": [{"measurement": "clearance", "setting": "[1]", "value": 0.2, "unit": "mL/min/kg"}, {"measurement": "selectivity ratio at 24 h", "setting": "[4]", "value": 2.56}, {"measurement": "Drug uptake", "setting": "[9]", "value": "Active"}, {"measurement": "Drug uptake", "setting": "[6]", "value": "Active"}, {"measurement": "Drug uptake", "setting": "[10]", "value": "Active"}, {"measurement": "IC50", "setting": "U-87 MG", "value": 11.4, "unit": "µM"}, {"measurement": "half-life", "setting": "[11]", "value": 1.93, "unit": "h"}, {"measurement": "Ratio", "setting": "Mus musculus", "value": 6.5}]}, {"smiles": "CC1(C)C(/C=C/C2=C(Cl)C(=C/C=C3/N(CCCCCC(=O)O)c4ccccc4C3(C)C)/CCC2)=[N+](CCCCCC(=O)O)c2ccccc21", "values": [{"measurement": "IC50", "setting": "U-87 MG", "value": 19.2, "unit": "µM"}]}, {"smiles": "CC1(C)C(/C=C/C2=C(Cl)C(=C/C=C3/N(CCCCCC(=O)O)c4ccccc4C3(C)C)/C[N+](C)(C)C2)=[N+](CCCCCC(=O)O)c2ccccc21", "values": [{"measurement": "IC50", "setting": "U-87 MG", "value": "> 100", "unit": "µM"}]}]}
